Source: ChEMBL document CHEMBL1681651, “A broad spectrum anticancer nucleoside with selective toxicity against human colon cells in vitro” (2011)

How the values were obtained:
Format in all cases: functional
[1] = test system: CCRF-CEM; experiment: Growth inhibition of human CCRF-CEM cells after 48 hrs by […] growth inhibition assay
[2] = test system: Malme-3M; experiment: Growth inhibition of human MALME-3M cells assessed as cell growth at 0.1 uM after 48 hrs by SRB assay; settings: read-out: Activity
[3] = test system: SF-268; experiment: Growth inhibition of human SF268 cells assessed as cell growth at 1 uM after 48 hrs by SRB assay; settings: SF-268, 48 h, read-out: Activity
[4] = test system: SK-MEL-2; experiment: Growth inhibition of human SK-MEL-2 cells assessed as cell growth at 100 uM after 48 hrs by SRB assay; settings: SK-MEL-2, 48 h, read-out: Activity
[5] = test system: SNB-75; experiment: Growth inhibition of human SNB75 cells assessed as cell growth at 10 uM after 48 hrs by SRB assay; settings: SNB-75, 48 h, read-out: Activity
[6] = test system: SNB-19; experiment: Growth inhibition of human SNB19 cells assessed as cell growth at 10 uM after 48 hrs by SRB assay; settings: SNB-19, 48 h, read-out: Activity
[7] = test system: MDA-MB-231; experiment: Growth inhibition of human MDA-MB-231 cells assessed as cell growth at 0.1 uM after 48 hrs by SRB assay; settings: MDA-MB-231, 48 h, read-out: Activity
[8] = test system: NCI/ADR-RES; experiment: Growth inhibition of human NCI/ADR-RES cells assessed as cell growth at 0.1 uM after 48 hrs by SRB assay; settings: read-out: Activity
[9] = test system: SK-OV-3; experiment: Growth inhibition of human SKOV3 cells assessed as cell growth at 0.1 uM after 48 hrs by SRB assay; settings: SK-OV-3, 48 h, read-out: Activity
[10] = test system: OVCAR-4; experiment: Growth inhibition of human OVCAR4 cells assessed as cell growth at 100 uM after 48 hrs by SRB assay; settings: OVCAR-4, 48 h, read-out: Activity
[11] = test system: BT-549; experiment: Growth inhibition of human BT549 cells after 48 hrs by […] growth inhibition assay; settings: BT-549, 48 h
[12] = test system: HCC 2998; experiment: Growth inhibition of human HCC2998 cells assessed as cell growth at 10 uM after 48 hrs by SRB assay; settings: HCC 2998, 48 h, read-out: Activity
[13] = test system: NCI-H226; experiment: Growth inhibition of human NCI-H226 cells assessed as cell growth at 1 uM after 48 hrs by SRB assay; settings: NCI-H226, 48 h, read-out: Activity
[14] = test system: HCT-116; experiment: Growth inhibition of human HCT116 cells after 48 hrs by […] growth inhibition assay; settings: HCT-116, 48 h
[15] = test system: SF-268; experiment: Growth inhibition of human SF268 cells assessed as cell growth at 1 mM after 48 hrs by SRB assay; settings: SF-268, 48 h, read-out: Activity
[16] = test system: EKVX; experiment: Growth inhibition of human EKVX cells after 48 hrs by […] growth inhibition assay
[17] = test system: SN12C; experiment: Growth inhibition of human SN12C cells assessed as cell growth at 0.1 uM after 48 hrs by SRB assay; settings: read-out: Activity
[18] = test system: NCI-H522; experiment: Growth inhibition of human NCI-H522 cells assessed as cell growth at 100 uM after 48 hrs by SRB assay; settings: NCI-H522, 48 h, read-out: Activity
[19] = test system: COLO 205; experiment: Growth inhibition of human COLO205 cells assessed as cell growth at 1 uM after 48 hrs by SRB assay; settings: COLO 205, 48 h, read-out: Activity
[20] = test system: MCF7; experiment: Growth inhibition of human MCF7 cells assessed as cell growth at 100 uM after 48 hrs by SRB assay; settings: MCF7, 48 h, read-out: Activity
[21] = Growth inhibition of human […] cells assessed as cell growth at 1 uM after 48 hrs by SRB assay; settings: read-out: Activity
[22] = test system: UACC-257; experiment: Growth inhibition of human UACC257 cells assessed as cell growth at 1 uM after 48 hrs by SRB assay; settings: UACC-257, 48 h, read-out: Activity
[23] = test system: LOX IMVI; experiment: Growth inhibition of human LOXIMVI cells assessed as cell growth at 100 uM after 48 hrs by SRB assay; settings: read-out: Activity
[24] = test system: HCT-15; experiment: Growth inhibition of human HCT15 cells assessed as cell growth at 1 mM after 48 hrs by SRB assay; settings: HCT-15, 48 h, read-out: Activity
[25] = test system: UACC-62; experiment: Growth inhibition of human UACC62 cells assessed as cell growth at 10 uM after 48 hrs by SRB assay; settings: UACC-62, 48 h, read-out: Activity
[26] = test system: HT-29; experiment: Growth inhibition of human HT-29 cells assessed as cell growth at 0.1 uM after 48 hrs by SRB assay; settings: HT-29, 48 h, read-out: Activity
[27] = test system: OVCAR-4; experiment: Growth inhibition of human OVCAR4 cells after 48 hrs by […] growth inhibition assay; settings: OVCAR-4, 48 h
[28] = test system: UACC-257; experiment: Growth inhibition of human UACC257 cells assessed as cell growth at 100 uM after 48 hrs by SRB assay; settings: UACC-257, 48 h, read-out: Activity
[29] = test system: OVCAR-8; experiment: Growth inhibition of human OVCAR8 cells assessed as cell growth at 0.1 uM after 48 hrs by SRB assay; settings: OVCAR-8, 48 h, read-out: Activity
[30] = test system: HCC 2998; experiment: Growth inhibition of human HCC2998 cells after 48 hrs by […] growth inhibition assay; settings: HCC 2998, 48 h
[31] = test system: NCI/ADR-RES; experiment: Growth inhibition of human NCI/ADR-RES cells assessed as cell growth at 10 uM after 48 hrs by SRB assay; settings: read-out: Activity
[32] = test system: U-251; experiment: Growth inhibition of human U251 cells assessed as cell growth at 10 uM after 48 hrs by SRB assay; settings: U-251, 48 h, read-out: Activity
[33] = test system: SF-539; experiment: Growth inhibition of human SF539 cells assessed as cell growth at 10 uM after 48 hrs by SRB assay; settings: SF-539, 48 h, read-out: Activity
[34] = read-out: LC50 (the source's name)
[35] = read-out: pLC50 (the source's name) (converted)

CCOC(=O)C[C@H]1[C@@H](O[Si](C)(C)C(C)(C)C)[C@H](n2cnc3c(NC(=O)Nc4ccccc4)ncnc32)O[C@@H]1CNC(=O)NC
GI50 ([1]; read-out: GI50): 6.69 µM
LC50 (lethal concentration, 50% net cell kill) ([1]; read-out: LC50): > 100 µM
TGI ([1]; read-out: TGI): 88.6 µM
GI50 ([1]; read-out: pGI50 (converted)): 6.76 µM
LC50 (lethal concentration, 50% net cell kill) ([1]; read-out: pLC50 (converted)): > 100 µM
TGI ([1]; read-out: pTGI (converted)): 89.1 µM
growth at 0.1 µM [2]: 104%
growth at 1 µM [3]: 103%
growth at 100 µM [4]: 32%
growth at 10 µM [5]: 85%
growth at 10 µM [6]: 87%
growth at 0.1 µM [7]: 101%
growth at 0.1 µM [8]: 105%
growth at 0.1 µM [9]: 96%
growth at 100 µM [10]: 53%
GI50 ([11]; read-out: GI50): > 100 µM
CC50 [11, 34]: > 100 µM
TGI ([11]; read-out: TGI): > 100 µM
GI50 ([11]; read-out: pGI50 (converted)): > 100 µM
CC50 [11, 35]: > 100 µM
TGI ([11]; read-out: pTGI (converted)): > 100 µM
growth at 10 µM [12]: 93%
growth at 1 µM [13]: 105%
GI50 ([14]; read-out: GI50): 3.2 µM
CC50 [14, 34]: 45.6 µM
TGI ([14]; read-out: TGI): 16.1 µM
GI50 ([14]; read-out: pGI50 (converted)): 3.24 µM
CC50 [14, 35]: 45.7 µM
TGI ([14]; read-out: pTGI (converted)): 16.2 µM
growth at 1000 µM [15]: -53%
GI50 ([16]; read-out: GI50): 17.7 µM
CC50 [16, 34]: > 100 µM
TGI ([16]; read-out: TGI): > 100 µM
GI50 ([16]; read-out: pGI50 (converted)): 17.8 µM
CC50 [16, 35]: > 100 µM
TGI ([16]; read-out: pTGI (converted)): > 100 µM
growth at 0.1 µM [17]: 101%
growth at 100 µM [18]: 32%
growth at 1 µM [19]: 97%
growth at 100 µM [20]: 16%
growth at 1 µM [21]: 75%
growth at 1 µM [22]: 102%
growth at 100 µM [23]: 35%
growth at 1000 µM [24]: 43%
growth at 10 µM [25]: 97%
growth at 0.1 µM [26]: 104%
GI50 ([27]; read-out: GI50): 12.3 µM
CC50 [27, 34]: > 100 µM
TGI ([27]; read-out: TGI): > 100 µM
GI50 ([27]; read-out: pGI50 (converted)): 12.3 µM
CC50 [27, 35]: > 100 µM
TGI ([27]; read-out: pTGI): > 100 µM
growth at 100 µM [28]: 34%
growth at 0.1 µM [29]: 99%
GI50 ([30]; read-out: GI50): > 100 µM
CC50 [30, 34]: > 100 µM
TGI ([30]; read-out: TGI): > 100 µM
GI50 ([30]; read-out: pGI50 (converted)): > 100 µM
CC50 [30, 35]: > 100 µM
TGI ([30]; read-out: pTGI (converted)): > 100 µM
growth at 10 µM [31]: 104%
growth at 10 µM [32]: 94%
growth at 10 µM [33]: 103%

CNC(=O)NC[C@H]1O[C@@H](n2cnc3c(NC(=O)Nc4ccccc4)ncnc32)[C@H](O[Si](C)(C)C(C)(C)C)[C@@H]1CC(=O)N(C)OC
GI50 ([1]; read-out: GI50): 6.37 µM
LC50 (lethal concentration, 50% net cell kill) ([1]; read-out: LC50): > 100 µM
TGI ([1]; read-out: TGI): > 100 µM
GI50 ([1]; read-out: pGI50 (converted)): 6.31 µM
LC50 (lethal concentration, 50% net cell kill) ([1]; read-out: pLC50 (converted)): > 100 µM
TGI ([1]; read-out: pTGI (converted)): > 100 µM
growth at 0.1 µM [2]: 103%
growth at 1 µM [3]: 105%
growth at 100 µM [4]: 62%
growth at 10 µM [5]: 84%
growth at 10 µM [6]: 83%
growth at 0.1 µM [7]: 97%
growth at 0.1 µM [8]: 109%
growth at 0.1 µM [9]: 96%
growth at 100 µM [10]: 60%
GI50 ([11]; read-out: GI50): 29 µM
CC50 [11, 34]: > 100 µM
TGI ([11]; read-out: TGI): > 100 µM
GI50 ([11]; read-out: pGI50 (converted)): 28.8 µM
CC50 [11, 35]: > 100 µM
TGI ([11]; read-out: pTGI (converted)): > 100 µM
growth at 10 µM [12]: 100%
growth at 1 µM [13]: 111%
GI50 ([14]; read-out: GI50): 4.2 µM
CC50 [14, 34]: > 100 µM
TGI ([14]; read-out: TGI): > 100 µM
GI50 ([14]; read-out: pGI50 (converted)): 4.17 µM
CC50 [14, 35]: > 100 µM
TGI ([14]; read-out: pTGI (converted)): > 100 µM
growth at 1000 µM [15]: 20%
GI50 ([16]; read-out: GI50): 26.4 µM
CC50 [16, 34]: > 100 µM
TGI ([16]; read-out: TGI): > 100 µM
GI50 ([16]; read-out: pGI50 (converted)): 26.3 µM
CC50 [16, 35]: > 100 µM
TGI ([16]; read-out: pTGI (converted)): > 100 µM
growth at 0.1 µM [17]: 106%
growth at 100 µM [18]: 51%
growth at 1 µM [19]: 93%
growth at 100 µM [20]: 34%
growth at 1 µM [21]: 91%
growth at 1 µM [22]: 103%
growth at 100 µM [23]: 43%
growth at 1000 µM [24]: 37%
growth at 10 µM [25]: 96%
growth at 0.1 µM [26]: 104%
GI50 ([27]; read-out: GI50): 53 µM
CC50 [27, 34]: > 100 µM
TGI ([27]; read-out: TGI): > 100 µM
GI50 ([27]; read-out: pGI50 (converted)): 52.5 µM
CC50 [27, 35]: > 100 µM
TGI ([27]; read-out: pTGI): > 100 µM
growth at 100 µM [28]: 65%
growth at 0.1 µM [29]: 107%
GI50 ([30]; read-out: GI50): 30.6 µM
CC50 [30, 34]: > 100 µM
TGI ([30]; read-out: TGI): > 100 µM
GI50 ([30]; read-out: pGI50 (converted)): 30.9 µM
CC50 [30, 35]: > 100 µM
TGI ([30]; read-out: pTGI (converted)): > 100 µM
growth at 10 µM [31]: 105%
growth at 10 µM [32]: 90%
growth at 10 µM [33]: 89%
